Where a name gives a salt, the structure may show the parent alone.
Experiments:
[1] = Solubility of the mesylate salt in H2O; format: physicochemical
Method: To obtain the methansulphonate salt (mesylate salt), 4 ml of 0.1N CH3SO3H in EtOAc was added to a solution of 145 mg (0.4 mmol) 6-cyclopropylamino-9-(2-fluorobenzyl)-2-trifluoromethylpurine in EtOAc. Then, 1 ml of hexane was added to a warm solution and the resultant mixture was allowed to crystallize (within a refrigerator). The solid was collected to give 148 mg of the mesylate salt. […] M.p. 167.5-169.0 C; m.p. 114-118 C for free base.

rats [2] = assay: Radial arm maze task in rats, an in vivo test for learning and memory; parameters: species or system rat; settings: MK-801 0.1 mg/kg, i.p., compared to control, p<0.01
Method: The test was performed as previously described (Zhang, H.-T., Crissman, A. M., Dorairaj, N. R., Chandler, L. J., and O'Donnell, J. M., Neuropsychopharmacology, 2000, 23, 198-204.). Five days after initial housing, rats (male Spraque-Dawley (Harlan) weighing 250 to 350 g) were placed in the eight-arm radial maze (each arm was 60×10×12 cm high; the maze was elevated 70 cm above the floor) for acclimation for two days. Rats were then placed individually in the center of the maze for 5 minutes with food pellets placed close to the food wells, and then, the next day, in the wells at the end of the arms; 2 sessions a day were conducted. Next, four randomly selected arms were then baited with one pellet of food each. The rat was restricted to the center platform (26 cm in diameter) for 15 seconds and then allowed to move freely throughout the maze until it collected all pellets of food or 10 minutes passed, whichever came first. Four parameters were recorded: 1) working memory errors, i.e., entries into baited arms that had already been visited during the same trial; 2) reference memory errors, i.e., entries into unbaited arms; 3) total arm entries; and 4) the test duration (seconds), i.e., the time spent in the collection of all the pellets in the maze. […]
(§1) All data were analyzed by analyses of variance (ANOVA); individual comparisons were made using Kewman-Keuls tests. […]

rats [3] = assay: Passive avoidance in rats, an in vivo test for learning and memory; parameters: species or system rat; settings: MK-801 0.1 mg/kg pretreatment, compared to the vehicle, p<0.001, 24 hours after electric shock
Method: The test was performed as previously described (Zhang, H.-T., Crissman, A. M., Dorairaj, N. R., Chandler, L. J., and O'Donnell, J. M., Neuropsychopharmacology, 2000, 23, 198-204.). The apparatus (Model E10-16SC, Coulbourn Instruments, Allentown, Pa.) consisted of a two-compartment chamber with an illuminated compartment connected to a darkened compartment by a guillotine door. The floor of the darkened compartment consisted of stainless steel rods through which an electric foot-shock could be delivered from a constant current source. All experimental groups were first habituated to the apparatus the day before the start of the experiment. During the training, the rat (Male Spraque-Dawley (Harlan) weighing 250 to 350 g) was placed in the illuminated compartment facing away from the closed guillotine door for 1 minute before the door was raised. The latency for entering the darkened compartment was recorded. After the rat entered the darkened compartment, the door was closed and a 0.5 mA electric shock was administered for 3 seconds. […] The latency for entering the darkened compartment was recorded for up to 180 seconds, at which time the trial was terminated.
as §1

SMILES | solubility in H2O [1] | frequency of reference memory errors (rats [2]) | frequency of working memory errors (rats [2]) | latency for entering the darkened compartment (retention test) (rats [3])
Fc1ccccc1Cn1cnc2c(NC3CC3)nc(C(F)(F)F)nc21 [Example 4 mesylate salt, 6-cyclopropylamino-9-(2-fluorobenzyl)-2-trifluoromethylpurine] | relatively insoluble | – | – | –
C[C@]12N[C@H](Cc3ccccc31)c1ccccc12 [MK-801] | – | increased | increased | markedly reduced

— US7332486B2, “Phosphodiesterase 4 inhibitors” (Memory Pharmaceuticals Corp., priority 2002, dated 2008)
